# Measured values reported in patent US9763939B2, “Compositions and methods for treating mitochondrial diseases” (BIOVISTA, INC., priority 2012, dated 2017).
# Key:
# [1] = test system: human primary fibroblasts from patients suffering from Friedreich's ataxia; assay: cells
# Method: EXAMPLE. […] Briefly, primary human fibroblasts from patients suffering from Friedreich's ataxia and LHON are lesioned with 100 μM BSO (LHON fibroblasts) or 250 μM BSO (FRDA fibroblasts) respectively, for 48 hours. Apoptosis, toxicity and viability rate of cells are determined using the ApoTox-Glo-Kit (Promega): the reagent for assessing viability and toxicity is applied 1:5 into treatment medium and incubated for 30 min at 37° C. Next, fluorescence is measured at the following wavelength sets: 400EX/505EM (viability) and 485EX/520EM (toxicity). In case of apoptosis measurement the caspase reagent was added 1:2 and incubated at RT for 30 min, the caspase activity (apoptosis) was measured as luminescence
# EXAMPLE. Evaluation of Tetracyclic Pyrazinoindoles, and Pharmaceutically Acceptable Salts Thereof. One or more tetracyclic pyrazinoindoles are applied 2 and 24 hours before BSO treatment and are present throughout the assay. An optional reference compound, such as idebenone may be included for comparison. BSO treated cells without any treatment (BSO group) as well as cells neither treated with BSO nor with any treatment (Vehicle Control (VC) group) serve as controls. Cells are assessed for apoptosis, toxicity and viability immediately after BSO lesion by means of the ApoTox-Glo-assay Kit (Promega). Three independent experiments in four technical replicates are performed for all groups as depicted in Table 1 (different tetracyclic pyrazinoindoles are labeled as Test Items (T.I.1-T.I.2) and an optional positive control Reference Item 1 (R.I.1)):
# BSO generally reduces a cell's protection against oxidative damage. Cells harvested from FRDA and LHON patients generate higher levels of ROS than normal cells. Apoptosis, toxicity and viability rate of cells are determined using the ApoTox-Glo-Kit (Promega): the reagent for assessing viability and toxicity is applied 1:5 into treatment medium and incubated for 30 min at 37° C. Next, fluorescence is measured at the following wavelength sets: 400EX/505EM (viability) and 485EX/520EM (toxicity). In case of apoptosis measurement the caspase reagent is added 1:2 and incubated at RT for 30 min, the caspase activity (apoptosis) was measured as luminescence
# Descriptive statistical analysis was performed. Data are presented as mean±standard error of mean (SEM) in percent of vehicle control, MPP+ lesion and BSO lesion, respectively. Differences between compound-treated groups and controls (vehicle, BSO) are evaluated by means of One-Way ANOVA.
# EXAMPLE. […] One vial is thawed and administered 2 and 24 hours before BSO treatment, at concentrations 0.6 μM, 1.8 μM, 5.5 μM and 16 μM. Apoptosis, toxicity and viability rate of cells are determined using the ApoTox-Glo-Kit (Promega). Human primary fibroblasts from patients suffering from Friedreich's ataxia are used. Three independent experiments in four technical replicates are performed for all groups. […] Statistical significance is indicated by NS=not significant p>0.1, *=p<0.05, **=p<0.01, ***=p<0.001 as determined by One-Way ANOVA. Data are shown as group mean+/−SEM.
# EXAMPLE. Tetrindole is diluted in DMSO. One vial is thawed and administered 2 and 24 hours before BSO treatment, at concentrations 0.2 μM, 0.6 μM, 1.8 μM and 5.5 μM. Apoptosis, toxicity and viability rate of cells are determined using the ApoTox-Glo-Kit (Promega). Human primary fibroblasts from patients suffering from Friedreich's ataxia are used. Three independent experiments in four technical replicates are performed for all groups. […] Statistical significance is indicated by NS=not significant p>0.1, *=p<0.05, **=p<0.01, ***=p<0.001 as determined by One-Way ANOVA. Data are shown as group mean+/−SEM.
# [2] = test system: C57BL/6 mice with MOG-induced EAE; assay: MOG-induced Experimental Allergic Encephalomyelitis (MOG-EAE) mouse model, spinal cord histology; format: in vivo; settings: spinal cord H&E histology day 35, pirlindole 30 mg/kg, dexamethasone positive control, dose not given
# Method: EXAMPLE. Evaluation of anti-inflammatory and direct protection mode of action. Compounds described herein are evaluated in a standard MOG-induced Experimental Allergic Encephalomyelitis (MOG-EAE) mouse model of neurodegeneration to determine whether the compounds protect neurons directly, or via an indirect anti-inflammatory mode of action. EAE is induced in C57BL/6 mice by the single subcutaneous injection of MOG emulsified in Complete Freund's Adjuvant (CFA) on study days 0 and 6, followed by intraperitoneal supplemental immunostimulation with Pertussis Toxin (PT) carried out once at the time of EAE induction and once again 48 hours later. Test animals are observed for 35 days. Histology samples are harvested from the spinal cords of the animals on day 35 and are stained with Hematoxylin & Eosin (H&E). Analysis of the samples comprises two parameters: a) The Severity Score which refers mainly to infiltration by inflammatory cells and b) White Matter Damage (WMD), which refers mainly to axonal degeneration.
# [3] = test system: reuptake of noradrenaline; assay: Effect on reuptake of noradrenaline
# dopaminergic system = assay: Effect on the dopaminergic system
# cholinergic system = assay: Effect on the cholinergic system
# Absolute bioavailability = settings: in vivo; species not given
# [4] = Pharmacokinetics in the dog; format: in vivo
# in vivo = settings: rat
smiles,measurement,setting,value
"Cc1ccc2c(c1)c1c3n2CCNC3CCC1 (centres unmarked) [pirlindole, 2,3,3a,4,5,6-hexahydro-8-methyl-1H-pyrazino[3,2,1-j,k]carbazole]",statistically significant overall cytotoxicity over BSO control,[1],not observed at any dose
same,apoptosis (caspase activity),"[1]; 16 μM, only after the short incubation (2 h before lesion)",reduced apoptosis
same,viability at 16 µM,"[1]; Homo sapiens, Fibroblast, 48 h, read-out: protective effect in relative cell viability",161%
same,statistically significant improvement in apoptosis compared to the BSO group,[1]; all tested doses,not observed at any dose
same,Severity Score (infiltration by inflammatory cells),[2]; vehicle 2.85±0.66,2.7±1.29
same,White Matter Damage (WMD) percentage (axonal degeneration),[2]; vehicle 74.2±26.1,41±44.1 percentage
same,effect on the reuptake of noradrenaline,[3],inhibitory effect
same,effect on the dopaminergic system,dopaminergic system,no effect
same,effect on the cholinergic system,cholinergic system,no effect
same,bioavailability,Absolute bioavailability,20 to 30%
same,first phase of elimination,"[4]; dog, approximately",approximately 1.5 h
same,second phase of elimination,"[4]; dog, approximately",~11 h
same,third phase of elimination,"[4]; dog, approximately",~185 h
same,Tmax,"[4]; in vivo, dog, oral, approximately",1 to 2 h
same,blood levels versus dose,"[4]; male and female dogs, repeated administration of three dose levels p.o. for one year",strictly dose-dependent
same,LD50,in vivo; iv,~80 mg/kg
same,LD50,in vivo; po,2000 to 5000 mg/kg
